This assay deals with human recombinant H-PGDS (Homo sapiens, UniProt O60760). The assay is described as follows: Fluorescence intensity h-PGDS TBA enzyme assay. The class given is biochemical. Conditions: Examples up to 622 (and 3a, 3b).

Experimental findings from patent publication US7902373B2 (Pfizer Inc, priority 2006, dated 2011) are described below.

Sequence of human recombinant H-PGDS (O60760 whole entry): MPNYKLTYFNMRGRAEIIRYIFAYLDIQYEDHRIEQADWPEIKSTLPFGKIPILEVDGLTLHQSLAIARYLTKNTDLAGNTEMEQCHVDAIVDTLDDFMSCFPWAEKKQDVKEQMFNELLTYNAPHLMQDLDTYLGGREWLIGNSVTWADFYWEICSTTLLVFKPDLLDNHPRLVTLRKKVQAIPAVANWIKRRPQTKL

For `COc1ccc(C(C)N2CCC(NC(=O)c3ccc(-c4cccc(F)c4)nc3)CC2)c(OC)c1` (centres unmarked) [Example 543, N-{1-[1-(2,4-Dimethoxyphenyl)ethyl]piperidin-4-yl}-6-(3-fluorophenyl)nicotinamide], the 50% inhibitory concentration (IC50) (as a rule, the concentration that inhibits the measured activity by half) was found to be 3.27 nM.
With `COc1cc(OC)cc(C(C)N2CCC(NC(=O)c3ccc(-c4cccc(F)c4)nc3)CC2)c1` (centres unmarked) [Example 544, N-{1-[1-(3,5-Dimethoxyphenyl)ethyl]piperidin-4-yl}-6-(3-fluorophenyl)nicotinamide], the half-maximal inhibitory concentration (IC50) was found to be 1.27 nM.
In the case of `CCC(C)N1CCC(NC(=O)c2ccc(-c3cccc(F)c3)nc2)CC1` (centres unmarked) [Example 545, N-(1-sec-Butylpiperidin-4-yl)-6-(3-fluorophenyl)nicotinamide] it was 2.65 nM; in that of `CC(=O)NC1CCC(N2CCC(NC(=O)c3ccc(-c4cccc(F)c4)nc3)CC2)CC1` (centres unmarked) [Example 546, N-{1-[4-(Acetylamino)cyclohexyl]piperidin-4-yl}-6-(3-fluorophenyl)nicotinamide], 2.83 nM.
For the compound `O=C(NC1CCN(C2CCOCC2)CC1)c1ccc(-c2cccc(F)c2)nc1` [Example 547, 6-(3-Fluorophenyl)-N-[1-(tetrahydro-2H-pyran-4-yl)piperidin-4-yl]nicotinamide], the IC50 stood at 1.14 nM.
On to `CC(CCn1cccn1)N1CCC(NC(=O)c2ccc(-c3cccc(F)c3)nc2)CC1` (centres unmarked) [Example 548, 6-(3-Fluorophenyl)-N-{1-[1-methyl-3-(1H-pyrazol-1-yl)propyl]piperidin-4-yl}nicotinamide], for which the concentration for half-maximal inhibition (IC50) is 2.07 nM.
In the case of `COC1CCCC(N2CCC(NC(=O)c3ccc(-c4cccc(F)c4)nc3)CC2)C1` (centres unmarked) [Example 549, 6-(3-Fluorophenyl)-N-[1-(3-methoxycyclohexyl)piperidin-4-yl]nicotinamide] it was 2.26 nM; in that of `CC(CCO)N1CCC(NC(=O)c2ccc(-c3cccc(F)c3)nc2)CC1` (centres unmarked) [Example 550, 6-(3-Fluorophenyl)-N-[1-(3-hydroxy-1-methylpropyl)piperidin-4-yl]nicotinamide], 2.38 nM; in that of `O=C(NC1CCN(C2CCCC2)CC1)c1ccc(-c2cccc(F)c2)nc1` [Example 551, N-(1-Cyclopentylpiperidin-4-yl)-6-(3-fluorophenyl)nicotinamide], 1.32 nM.
For `O=C(NC1CCN(C2CNC2)CC1)c1ccc(-c2cccc(F)c2)nc1` [Example 552, N-(1-Azetidin-3-ylpiperidin-4-yl)-6-(3-fluorophenyl)nicotinamide], the half-inhibitory concentration (IC50) was 2.37 nM.
For the compound `COc1ccccc1OCC(C)N1CCC(NC(=O)c2ccc(-c3cccc(F)c3)nc2)CC1` (centres unmarked) [Example 553, 6-(3-Fluorophenyl)-N-{1-[2-(2-methoxyphenoxy)-1-methylethyl]piperidin-4-yl}nicotinamide], the 50% inhibitory concentration (IC50) amounted to 1.78 nM.
As to `O=C(NC1CCN(C2CCC(O)(c3cncnc3)CC2)CC1)c1ccc(-c2cccc(F)c2)nc1` (centres unmarked) [Example 554, 6-(3-Fluorophenyl)-N-[1-(4-hydroxy-4-pyrimidin-5-ylcyclohexyl)piperidin-4-yl]nicotinamide], the IC50 turned out to be 1.72 nM.
For the compound `O=C(NC1CCN(C2CCC(O)(c3nccs3)CC2)CC1)c1ccc(-c2cccc(F)c2)nc1` (centres unmarked) [Example 555, 6-(3-Fluorophenyl)-N-{1-[4-hydroxy-4-(1,3-thiazol-2-yl)cyclohexyl]piperidin-4-yl}nicotinamide], the IC50 came to 0.928 nM.
Consider `O=C(NC1CCN(C2CCC(Oc3ccccc3)CC2)CC1)c1ccc(-c2cccc(F)c2)nc1` (centres unmarked) [Example 556, 6-(3-Fluorophenyl)-N-[1-(4-phenoxycyclohexyl)piperidin-4-yl]nicotinamide], for which the IC50 came out at 0.364 nM.
In the case of `NC(=O)CCN1CCC(N2CCC(NC(=O)c3ccc(-c4cccc(F)c4)nc3)CC2)CCC1=O` (centres unmarked) [Example 557, N-{1-[1-(3-Amino-3-oxopropyl)-7-oxoazepan-4-yl]piperidin-4-yl}-6-(3-fluorophenyl)nicotinamide], the half-maximal inhibitory concentration (IC50) amounted to 6.56 nM.
`O=C(NC1CCN(C2CCC(O)(c3ccccc3)CC2)CC1)c1ccc(-c2cccc(F)c2)nc1` (centres unmarked) [Example 558, 6-(3-Fluorophenyl)-N-[1-(4-hydroxy-4-phenylcyclohexyl)piperidin-4-yl]nicotinamide]: the half-maximal inhibitory concentration (IC50) was 0.345 nM.
With `CC(C)(C)OC(=O)c1ccc(N2CCC(NC(=O)c3ccc(-c4cccc(F)c4)nc3)CC2)nc1` [Example 559, tert-Butyl 6-[4-({[6-(3-fluorophenyl)pyridin-3-yl]carbonyl}amino)piperidin-1-yl]nicotinate], the concentration for half-maximal inhibition (IC50) was 10.6 nM.
For the compound `O=C(O)c1ccc(N2CCC(NC(=O)c3ccc(-c4cccc(F)c4)nc3)CC2)nc1` [Example 560, 6-[4-({[6-(3-Fluorophenyl)pyridin-3-yl]carbonyl}amino)piperidin-1-yl]nicotinic acid], the concentration for half-maximal inhibition (IC50) worked out at 0.641 nM.
In the case of `CCN(CCO)C(=O)c1ccc(N2CCC(NC(=O)c3ccc(-c4cccc(F)c4)nc3)CC2)nc1` [Example 561, N-Ethyl-6-[4-({[6-(3-fluorophenyl)pyridin-3-yl]carbonyl}amino)piperidin-1-yl]-N-(2-hydroxyethyl)nicotinamide] it was 1.14 nM.
Consider `C=C(C)CN(C)C(=O)c1ccc(N2CCC(NC(=O)c3ccc(-c4cccc(F)c4)nc3)CC2)nc1` [Example 562, 6-[4-({[6-(3-Fluorophenyl)pyridin-3-yl]carbonyl}amino)piperidin-1-yl]-N-methyl-N-(2-methylprop-2-en-1-yl)nicotinamide], for which the half-inhibitory concentration (IC50) was determined as 1.74 nM.
In the case of `C=CCN(C)C(=O)c1ccc(N2CCC(NC(=O)c3ccc(-c4cccc(F)c4)nc3)CC2)nc1` [Example 563, N-Allyl-6-[4-({[6-(3-fluorophenyl)pyridin-3-yl]carbonyl}amino)piperidin-1-yl]-N-methylnicotinamide] it was 0.981 nM; in that of `O=C(NC1CCN(c2ccc(C(=O)N3CCC3)cn2)CC1)c1ccc(-c2cccc(F)c2)nc1` [Example 564, N-{1-[5-(Azetidin-1-ylcarbonyl)pyridin-2-yl]piperidin-4-yl}-6-(3-fluorophenyl)nicotinamide], 1.09 nM.
In the case of `C#CCN(C)C(=O)c1ccc(N2CCC(NC(=O)c3ccc(-c4cccc(F)c4)nc3)CC2)nc1` [Example 565, 6-[4-({[6-(3-Fluorophenyl)pyridin-3-yl]carbonyl}amino)piperidin-1-yl]-N-methyl-N-prop-2-yn-1-ylnicotinamide], the concentration for half-maximal inhibition (IC50) came to 1.05 nM.
Then `CCN(C)C(=O)c1ccc(N2CCC(NC(=O)c3ccc(-c4cccc(F)c4)nc3)CC2)nc1` [Example 566, N-Ethyl-6-[4-({[6-(3-fluorophenyl)pyridin-3-yl]carbonyl}amino)piperidin-1-yl]-N-methylnicotinamide], with 1.82 nM; and `CC(CO)N(C)C(=O)c1ccc(N2CCC(NC(=O)c3ccc(-c4cccc(F)c4)nc3)CC2)nc1` (centres unmarked) [Example 567, 6-[4-({[6-(3-Fluorophenyl)pyridin-3-yl]carbonyl}amino)piperidin-1-yl]-N-(2-hydroxy-1-methylethyl)-N-methylnicotinamide], with 0.867 nM.
As to `O=C(NC1CCN(c2ccc(C(=O)N3CCC(F)C3)cn2)CC1)c1ccc(-c2cccc(F)c2)nc1` (centres unmarked) [Example 568, 6-(3-Fluorophenyl)-N-(1-{5-[(3-fluoropyrrolidin-1-yl)carbonyl]pyridin-2-yl}piperidin-4-yl)nicotinamide], the IC50 is 0.649 nM.
In the case of `CN(C(=O)c1ccc(N2CCC(NC(=O)c3ccc(-c4cccc(F)c4)nc3)CC2)nc1)C1CCC1` [Example 569, N-Cyclobutyl-6-[4-({[6-(3-fluorophenyl)pyridin-3-yl]carbonyl}amino)piperidin-1-yl]-N-methylnicotinamide], the IC50 was 2.13 nM.
With `CCN(CC)C(=O)c1ccc(N2CCC(NC(=O)c3ccc(-c4cccc(F)c4)nc3)CC2)nc1` [Example 570, N,N-Diethyl-6-[4-({[6-(3-fluorophenyl)pyridin-3-yl]carbonyl}amino)piperidin-1-yl]nicotinamide], the concentration for half-maximal inhibition (IC50) stood at 1.41 nM.
For `O=C(NC1CCN(c2ccc(C(=O)N3CC=CC3)cn2)CC1)c1ccc(-c2cccc(F)c2)nc1` [Example 571, N-{1-[5-(2,5-Dihydro-1H-pyrrol-1-ylcarbonyl)pyridin-2-yl]piperidin-4-yl)-6-(3-fluorophenyl)nicotinamide], the IC50 stood at 1.04 nM.
Then `CCCN(C)C(=O)c1ccc(N2CCC(NC(=O)c3ccc(-c4cccc(F)c4)nc3)CC2)nc1` [Example 572, 6-[4-({[6-(3-Fluorophenyl)pyridin-3-yl]carbonyl}amino)piperidin-1-yl]-N-methyl-N-propylnicotinamide], with 5.25 nM.
`O=C(NC1CCN(c2ccc(C(=O)N3CCSC3)cn2)CC1)c1ccc(-c2cccc(F)c2)nc1` [Example 573, 6-(3-Fluorophenyl)-N-{1-[5-(1,3-thiazolidin-3-ylcarbonyl)pyridin-2-yl]piperidin-4-yl}nicotinamide]: the concentration for half-maximal inhibition (IC50) was 1.35 nM.
Turning to `CN(CC1CC1)C(=O)c1ccc(N2CCC(NC(=O)c3ccc(-c4cccc(F)c4)nc3)CC2)nc1` [Example 574, N-(Cyclopropylmethyl)-6-[4-({[6-(3-fluorophenyl)pyridin-3-yl]carbonyl}amino)piperidin-1-yl]-N-methylnicotinamide], the IC50 amounted to 1.24 nM.
Consider `CC(C)CN(C)C(=O)c1ccc(N2CCC(NC(=O)c3ccc(-c4cccc(F)c4)nc3)CC2)nc1` [Example 575, 6-[4-({[6-(3-Fluorophenyl)pyridin-3-yl]carbonyl}amino)piperidin-1-yl]-N-isobutyl-N-methylnicotinamide], for which the IC50 was found to be 2.24 nM.
On to `CN(CCC#N)C(=O)c1ccc(N2CCC(NC(=O)c3ccc(-c4cccc(F)c4)nc3)CC2)nc1` [Example 576, N-(2-Cyanoethyl)-6-[4-({[6-(3-fluorophenyl)pyridin-3-yl]carbonyl}amino)piperidin-1-yl]-N-methylnicotinamide], for which the 50% inhibitory concentration (IC50) was found to be 0.561 nM.
Turning to `O=C(NC1CCN(CC(F)(F)F)CC1)c1ccc(N2CCC(NC(=O)c3ccc(-c4cccc(F)c4)nc3)CC2)nc1` [Example 577, 6-(3-Fluorophenyl)-N-{1-[5-({[1-(2,2,2-trifluoroethyl)piperidin-4-yl]amino}carbonyl)pyridin-2-yl]piperidin-4-yl}nicotinamide], the IC50 came out at 1.48 nM.
